Data on 8 molecules can be found in PubChem BioAssay (NCI).

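Where inhibition never reached the appropriate level, the endpoint shown equals the highest concentration tested. Otherwise, values were interpolated linearly from a five-concentration, 48-hour dose response in 96-well plates. TGI is the concentration that stops growth completely.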

Some test systems named below: NCI-H23 lung; CCRF-CEM leukemia; UO-31 renal; SK-MEL-28 melanoma; NCI/ADR-RES ovarian; HCT-15 colon; DU-145 prostate; HCT-116 colon; SNB-75 CNS; UACC-257 melanoma; IGROV1 ovarian; SK-MEL-5 melanoma; NCI-H226 lung; RXF 393 renal; MOLT-4 leukemia; UACC-62 melanoma; HCC-2998 colon; A498 renal.
What all share (test): NCI anticancer screen, dose series, 48 h

Take `COc1ccc(C2=NN(C(=O)c3cccnc3)C(O)(c3cc(F)c(Cl)cc3Cl)C2)cc1OC` (configuration not stated): the TGI is 71.7 µM in the assay with NCI-H23 lung; above 100 µM in the assay with CCRF-CEM leukemia; 85 µM in the assay on UO-31 renal; 54.4 µM with SK-MEL-28 melanoma; 49.9 µM in the assay on NCI/ADR-RES ovarian; 35 µM in the assay with HCT-15 colon. Further, the TGI was above 100 µM with DU-145 prostate; 29.2 µM in the assay on HCT-116 colon; 62.9 µM in the assay on SNB-75 CNS; 34.2 µM in the assay with UACC-257 melanoma; 30.5 µM in the assay with IGROV1 ovarian; 25 µM in the assay on SK-MEL-5 melanoma. Further, the TGI is 30 µM in the assay with NCI-H226 lung, 33.5 µM in the assay on RXF 393 renal and above 100 µM in the assay with MOLT-4 leukemia.
For `O=C(O)c1ccc(NNC(=O)c2cccc3c(=O)c4ccccc4[nH]c23)cc1`, the TGI in the assay with NCI-H23 lung, in the assay with CCRF-CEM leukemia, in the assay with UO-31 renal, in the assay on SK-MEL-28 melanoma, with UACC-62 melanoma and in the assay with NCI/ADR-RES ovarian was above 100 µM in each case. Besides, the TGI with HCT-15 colon, in the assay with DU-145 prostate, in the assay with HCT-116 colon, with SNB-75 CNS, in the assay with UACC-257 melanoma and with HCC-2998 colon was above 100 µM each time. Besides, the TGI with IGROV1 ovarian, with SK-MEL-5 melanoma, in the assay on NCI-H226 lung, with RXF 393 renal and with MOLT-4 leukemia was above 100 µM in each case.
Turning to `O=C(c1ccccc1)C1C[C@H]2CO[C@H](c3ccccc3)N2C1=O` (some centres not stated), the TGI with NCI-H23 lung, in the assay with CCRF-CEM leukemia, with UO-31 renal, in the assay on SK-MEL-28 melanoma, with UACC-62 melanoma and with NCI/ADR-RES ovarian was above 100 µM throughout. Further, the TGI with HCT-15 colon, in the assay with DU-145 prostate, in the assay with HCT-116 colon, in the assay with SNB-75 CNS, in the assay on UACC-257 melanoma and in the assay with HCC-2998 colon was above 100 µM throughout. The TGI with IGROV1 ovarian, in the assay on SK-MEL-5 melanoma, with NCI-H226 lung, in the assay on RXF 393 renal and in the assay with MOLT-4 leukemia was above 100 µM in each case.
On to `CC1=CC(=O)/C(=C/n2c(=S)[nH]c3ccc([N+](=O)[O-])cc32)C(=O)O1`, for which the TGI with NCI-H23 lung, with CCRF-CEM leukemia, in the assay on UO-31 renal, with SK-MEL-28 melanoma, in the assay with UACC-62 melanoma and with NCI/ADR-RES ovarian was above 100 µM each time. The TGI in the assay with HCT-15 colon, in the assay with DU-145 prostate, with HCT-116 colon, in the assay with SNB-75 CNS, in the assay with UACC-257 melanoma and in the assay on HCC-2998 colon was above 100 µM in each case. Further, the TGI with IGROV1 ovarian, in the assay with SK-MEL-5 melanoma, in the assay on NCI-H226 lung, in the assay with RXF 393 renal and in the assay with MOLT-4 leukemia was above 100 µM each time.
For `COc1cc2c(cc1OC)C(=O)/C(=C/c1ccc([N+](=O)[O-])cc1)CC2`, the TGI with NCI-H23 lung, with CCRF-CEM leukemia, in the assay on SK-MEL-28 melanoma, in the assay on UACC-62 melanoma, in the assay with NCI/ADR-RES ovarian and with HCT-15 colon was above 10 µM each time. Further, the TGI in the assay with DU-145 prostate, in the assay on HCT-116 colon, with UACC-257 melanoma, in the assay on HCC-2998 colon, with IGROV1 ovarian and in the assay on SK-MEL-5 melanoma was above 10 µM in each case. The TGI with NCI-H226 lung, in the assay on RXF 393 renal and in the assay on MOLT-4 leukemia was above 10 µM each time.
As for `N#CC1(C#N)C(c2ccccc2)C=CC(c2ccc([N+](=O)[O-])cc2)C1(C#N)C#N` (configuration not stated), the TGI with NCI-H23 lung was 27.4 µM; with CCRF-CEM leukemia it was above 100 µM; in the assay on A498 renal, 32.1 µM; in the assay with UO-31 renal it was 26.8 µM; in the assay on SK-MEL-28 melanoma, 35.5 µM; with UACC-62 melanoma, 24.8 µM. The TGI in the assay on NCI/ADR-RES ovarian is above 74.4 µM; in the assay on HCT-15 colon, 16.5 µM; with DU-145 prostate it was 27.3 µM; in the assay with HCT-116 colon, 13.7 µM; in the assay with SNB-75 CNS, 47.7 µM; in the assay with UACC-257 melanoma, 30.2 µM. The TGI with HCC-2998 colon was 42.9 µM; in the assay with IGROV1 ovarian, 27.8 µM; with SK-MEL-5 melanoma it was 22.9 µM; with NCI-H226 lung, above 57.5 µM; in the assay on MOLT-4 leukemia it was 7.1 µM.
In the case of `O=C(CC(=O)N1N=C(N(c2ccccc2)c2ccccc2)CC1c1ccccc1)Nc1ccccc1` (configuration not stated), the TGI with NCI-H23 lung, with CCRF-CEM leukemia, in the assay with UO-31 renal, in the assay with SK-MEL-28 melanoma, with UACC-62 melanoma and in the assay with NCI/ADR-RES ovarian was above 100 µM each time. In addition, the TGI in the assay with HCT-15 colon, in the assay on DU-145 prostate, with HCT-116 colon, with SNB-75 CNS, with UACC-257 melanoma and in the assay with HCC-2998 colon was above 100 µM each time. Also, the TGI in the assay on IGROV1 ovarian, in the assay on SK-MEL-5 melanoma, in the assay on NCI-H226 lung, with RXF 393 renal and in the assay on MOLT-4 leukemia was above 100 µM in each case.
Regarding `CCOC(=O)c1ccc(N=c2oc3ccc(OC)cc3cc2-c2nc3ccccc3[nH]2)cc1`, the TGI with NCI-H23 lung, with CCRF-CEM leukemia, in the assay on UO-31 renal, in the assay on SK-MEL-28 melanoma, in the assay on UACC-62 melanoma and in the assay on NCI/ADR-RES ovarian was above 100 µM each time. Besides, the TGI with HCT-15 colon is above 100 µM; in the assay with DU-145 prostate, above 100 µM; in the assay on HCT-116 colon it was above 100 µM; in the assay on SNB-75 CNS, 65.2 µM; in the assay on UACC-257 melanoma, above 100 µM; with HCC-2998 colon, above 100 µM. In addition, the TGI is above 100 µM in the assay with IGROV1 ovarian; 80.4 µM in the assay with SK-MEL-5 melanoma; 8.58 µM in the assay with NCI-H226 lung; above 100 µM in the assay on RXF 393 renal; above 100 µM with MOLT-4 leukemia.
